Laboratory results taken from US20250099482A1, “TIP60 NEURO-EPIGENETIC MODULATORS” (Drexel University, priority 2023, published 2025).
“Also recorded” adds a separate entry of the source.

What was measured:
Tip60 = target: T1, Tip60 (Homo sapiens, UniProt Q92993); test: In vitro histone acetylation activity assay (Tip60); assay type: biochemical; conditions: 20 μM compound, vs Tip60+DMSO
T1 construct: purchased Active Motif 81975
Description: HAT assays were performed according to manufacturer's instructions in HAT Assay Kit (Active Motif 56100). Briefly, 375 ng Tip60 protein (Active motif: 81975) was incubated with 50 μM Histone H4 peptide, 50 μM Acetyl-CoA and indicated drug concentrations for 30 minutes at room temperature. After stopping the reaction and developing free sulfhydryl groups, […] was recorded at excitation 360-390 nm and emission 460-490 nm using Glomax fluorescence microplate reader. Specific enzyme activity (pmol/min/μg) was calculated by 1. Subtracting background fluorescence from that of assay samples to obtain arbitrary fluorescence units (AFU); and (2) Dividing the difference by the incubation time to obtain AFU/minute. 3. Dividing the AFU/minute by the slope of standard curve in AFU/pmol to obtain the rate in pmol/minute. 4. Dividing pmol/min by the amount of enzyme used to obtain final readings in pmol/minute/μg.

[1] = test system: Drosophila Alzheimer's disease model (APP); test: Eclosion assay (lethality) in APP Alzheimer's disease model; assay type: in vivo; conditions: compound in fly food
Description: All fly lines were raised on standard yeast Drosophila medium (Applied Scientific Jazz Mix Drosophila Food, Thermo Fischer Scientific) at 25° C. with 12/12-h light/dark cycle. The pan-neuronal driver elav^C155-Gal4, transgenic Tip60-RNAi-mediated knock-down (UAS-Tip60 RNAi) and the transgenic UAS lines carrying human APP 695 isoform (UAS-APP) were obtained from Bloomington Drosophila Stock Center. For neural Tip60 knockdown and APP expression, the elav^C155-Gal4 driver line was crossed with UAS-Tip60RNAi or UAS-APP and the progeny was collected as Tip60 knockdown model (elav^C155-Gal4/UAS-Tip60 RNAi) or APP associated AD model (elav^C155-Gal4/UAS-APP). For wild-type control, the elav^C155-Gal4 driver line was crossed with itself. Model validation was performed by confirming reduced Tip60 mRNA levels in Tip60 RNAi model as compared to wildtype using real-time PCR.
Compounds were synthesized by Enamine, Princeton Molecular and ChemBridge. […]
The P10 and P13 compound's functional effectiveness in rescuing AD associated lethality that occurs as a culmination of later stage neurodgenerative progression was assessed using an eclosion assay (FIG. 9C). Briefly, larvae were reared on food either with compounds dissolved in DMSO or without compounds (DMSO vehicle) and the number of flies that eclosed from their pupal cases over a 7 day period were counted.

[2] = test system: Drosophila Tip60 knockdown model; test: Larval line crossing / reaching the wall assay in Tip60-RNAi knockdown model; assay type: in vivo; conditions: for rescue of Tip60 knockdown induced locomotion deficits (line crossing in 30 seconds): 3rd instar Tip60-RNAi larvae, compound in fly food
purified p300 HAT = purified p300 HAT (Homo sapiens, UniProt Q09472); test: In vitro histone acetylation activity assay (p300); assay type: biochemical; conditions: HAT assays, 20 μM
[3] = test system: Drosophila Alzheimer's disease model (APP); test: Larval line crossing assay in APP Alzheimer's disease model; assay type: in vivo; conditions: 3rd instar APP larvae, compound in fly food, range of concentrations

T1 sequence (Q92993 whole entry): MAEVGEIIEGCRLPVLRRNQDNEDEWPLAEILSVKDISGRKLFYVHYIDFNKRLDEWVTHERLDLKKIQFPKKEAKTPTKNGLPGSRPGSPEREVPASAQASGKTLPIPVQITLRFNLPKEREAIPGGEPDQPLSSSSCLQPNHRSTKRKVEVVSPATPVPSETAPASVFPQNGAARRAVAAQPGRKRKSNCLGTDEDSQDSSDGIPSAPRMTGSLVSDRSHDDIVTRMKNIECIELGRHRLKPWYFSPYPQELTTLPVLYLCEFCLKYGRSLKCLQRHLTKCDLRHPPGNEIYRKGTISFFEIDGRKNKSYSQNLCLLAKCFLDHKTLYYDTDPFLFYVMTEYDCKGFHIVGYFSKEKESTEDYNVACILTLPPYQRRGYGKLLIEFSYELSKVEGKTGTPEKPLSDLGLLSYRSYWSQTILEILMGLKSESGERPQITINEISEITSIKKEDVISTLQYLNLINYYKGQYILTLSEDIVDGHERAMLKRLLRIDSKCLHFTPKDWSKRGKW
Sequence of purified p300 HAT (Q09472 whole entry, species assumed): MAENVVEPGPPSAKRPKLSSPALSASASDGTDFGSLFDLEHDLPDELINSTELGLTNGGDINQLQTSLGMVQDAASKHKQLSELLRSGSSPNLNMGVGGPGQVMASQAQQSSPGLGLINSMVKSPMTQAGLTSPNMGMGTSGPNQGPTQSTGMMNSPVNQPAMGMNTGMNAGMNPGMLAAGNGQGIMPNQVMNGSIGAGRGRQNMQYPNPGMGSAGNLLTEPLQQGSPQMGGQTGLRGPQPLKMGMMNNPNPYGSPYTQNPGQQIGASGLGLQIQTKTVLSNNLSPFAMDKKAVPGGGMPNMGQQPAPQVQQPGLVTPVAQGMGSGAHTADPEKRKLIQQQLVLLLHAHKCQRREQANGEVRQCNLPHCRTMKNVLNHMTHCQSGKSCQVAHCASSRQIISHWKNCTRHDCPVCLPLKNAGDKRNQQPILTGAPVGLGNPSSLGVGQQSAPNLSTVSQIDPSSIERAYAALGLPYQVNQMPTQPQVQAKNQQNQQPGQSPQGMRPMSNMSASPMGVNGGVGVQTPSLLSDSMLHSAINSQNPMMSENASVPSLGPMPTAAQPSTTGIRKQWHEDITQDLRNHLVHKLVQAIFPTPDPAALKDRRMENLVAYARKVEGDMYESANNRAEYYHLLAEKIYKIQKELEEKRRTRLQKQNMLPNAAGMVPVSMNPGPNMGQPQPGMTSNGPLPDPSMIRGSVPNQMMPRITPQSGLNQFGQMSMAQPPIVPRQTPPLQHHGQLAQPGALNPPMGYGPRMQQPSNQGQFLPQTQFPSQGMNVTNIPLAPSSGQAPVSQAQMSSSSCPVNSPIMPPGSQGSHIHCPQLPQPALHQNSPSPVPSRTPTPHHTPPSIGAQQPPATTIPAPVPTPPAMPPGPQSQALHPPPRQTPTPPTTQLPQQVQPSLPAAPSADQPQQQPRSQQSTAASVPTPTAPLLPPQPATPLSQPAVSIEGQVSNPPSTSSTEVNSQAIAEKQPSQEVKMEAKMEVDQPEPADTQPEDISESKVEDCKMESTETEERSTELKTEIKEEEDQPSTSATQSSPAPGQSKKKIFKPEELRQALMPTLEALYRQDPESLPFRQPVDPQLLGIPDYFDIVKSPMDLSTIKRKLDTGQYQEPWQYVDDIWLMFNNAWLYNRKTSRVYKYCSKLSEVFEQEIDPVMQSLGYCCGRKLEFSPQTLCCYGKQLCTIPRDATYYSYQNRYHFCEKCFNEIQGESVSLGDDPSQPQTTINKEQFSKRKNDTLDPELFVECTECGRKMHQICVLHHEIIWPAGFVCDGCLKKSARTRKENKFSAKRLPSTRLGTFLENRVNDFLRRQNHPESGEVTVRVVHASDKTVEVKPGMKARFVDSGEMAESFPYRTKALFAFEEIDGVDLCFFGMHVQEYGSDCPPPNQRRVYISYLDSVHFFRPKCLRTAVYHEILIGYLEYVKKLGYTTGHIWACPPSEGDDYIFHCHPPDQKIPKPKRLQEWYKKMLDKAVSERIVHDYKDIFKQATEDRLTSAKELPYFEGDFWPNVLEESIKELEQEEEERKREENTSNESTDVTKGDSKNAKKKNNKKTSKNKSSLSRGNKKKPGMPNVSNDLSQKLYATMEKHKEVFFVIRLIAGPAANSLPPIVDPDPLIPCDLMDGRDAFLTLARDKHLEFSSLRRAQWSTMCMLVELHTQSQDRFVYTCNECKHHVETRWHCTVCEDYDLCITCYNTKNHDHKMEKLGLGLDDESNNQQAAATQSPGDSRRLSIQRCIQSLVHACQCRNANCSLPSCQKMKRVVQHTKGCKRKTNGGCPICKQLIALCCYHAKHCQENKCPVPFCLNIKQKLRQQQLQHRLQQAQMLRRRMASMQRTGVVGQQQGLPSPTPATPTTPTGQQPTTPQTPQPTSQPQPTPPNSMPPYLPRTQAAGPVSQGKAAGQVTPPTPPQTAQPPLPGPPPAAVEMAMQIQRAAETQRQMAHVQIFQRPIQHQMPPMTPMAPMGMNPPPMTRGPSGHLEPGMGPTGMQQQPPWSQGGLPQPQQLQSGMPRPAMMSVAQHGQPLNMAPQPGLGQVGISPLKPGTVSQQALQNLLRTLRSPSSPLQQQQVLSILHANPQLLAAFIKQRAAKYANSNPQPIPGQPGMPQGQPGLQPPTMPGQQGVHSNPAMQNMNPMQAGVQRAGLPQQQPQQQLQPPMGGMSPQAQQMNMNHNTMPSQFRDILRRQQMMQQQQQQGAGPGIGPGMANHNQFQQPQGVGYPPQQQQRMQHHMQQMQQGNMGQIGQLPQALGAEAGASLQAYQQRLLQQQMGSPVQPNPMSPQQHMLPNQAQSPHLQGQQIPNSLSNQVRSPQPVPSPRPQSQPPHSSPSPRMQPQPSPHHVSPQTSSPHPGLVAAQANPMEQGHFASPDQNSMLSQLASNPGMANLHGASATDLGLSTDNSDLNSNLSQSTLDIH

Structure (SMILES)	effect on Tip60's HAT activity (Histone H4 acetylation, fluorescence) (Tip60)	rescue of AD associated lethality (flies eclosed over 7 day period) [1]	rescue of Tip60 knockdown induced locomotion deficits (line crossing in 30 seconds) [2]	specificity for Tip60 over p300 (purified p300 HAT)	rescue of AD associated locomotion defects (line crossing, reaching wall) [3]	ability of larvae to cross plate and reach the wall ([2]; 1 μM drug concentration)	restoration of locomotor activity (line crossing) ([2]; 1 μM drug concentration)
Cc1nc2c(cnn2C(C)C)cc1C(=O)NCc1ccc([C@H](C)O)c(C)n1 [Compound P10, (S)-N-((5-(1-hydroxyethyl)-6-methylpyridin-2-yl)methyl)-1-isopropyl-6-methyl-1H-pyrazolo[3,4-b]pyridine-5-carboxamide]	enhanced Tip60's HAT activity; also recorded: highest level of Tip60 HAT activation	significant rescue of lethality	rescue locomotor speed defect	highest specificity for Tip60 over p300	consistent and robust rescue	–	–
CC(=O)Nc1cccc(CNC(=O)c2cnc3ccccc3c2C(F)(F)F)c1 [Compound P13, N-(3-acetamidobenzyl)-4-(trifluoromethyl)quinoline-3-carboxamide]	enhanced Tip60's HAT activity; also recorded: highest level of Tip60 HAT activation	significant rescue of lethality; also recorded: more robust effects	rescue locomotor speed defect	highest specificity for Tip60 over p300	consistent and robust rescue	improved the performance of larvae in reaching the wall	best performer in restoring locomotor activity to wild-type levels
